# From paper PMC6941952, “A homogeneous bioluminescent immunoassay to probe cellular signaling pathway regulation” (Communications Biology, 2020)
# Values joined by “and” are separate entries in the source; they are usually repeats but may differ in a detail not shown here. Equal values may be shown once.
# How the values were obtained:
# Design in all cases: species or system human
# total STAT3 = test: NanoBiT cell-based immunoassay, total STAT3 in A431 cells; conditions: substance alone
# Procedure: Prior to NanoBiT Cell-Based Immunoassay, 50,000 cells were seeded in 160 µl of complete growth media per well of a 96-well plate and incubated overnight. […] If necessary, the cell culture media were replaced with serum-free media after the cells were stably adherent on the plate and incubated overnight. To treat cells with activators or inhibitors, medium was changed to 30 µl of medium containing inhibitors. If activation of a specific pathway is needed, the cells were stimulated with 10 µl of medium containing activators. To lyse the cells, 10 µl of lysis buffer containing 0.1% digitonin diluted in 1X immunoassay buffer with protease and phosphatase inhibitors was added and the plates were mixed vigorously for 20 min. Then, 50 µl of an antibody mix containing two primary antibodies against the target protein and NanoBiT detecting antibodies (0.3 µl each per well), diluted in 1X immunoassay buffer was added to the lysates. The plates were incubated at 23 °C for 90 min, followed by the addition of 25 µl of Nano-Glo® reagent consisting of Nano-Glo® Luciferase Assay Substrate mixed with 1X immunoassay buffer. Luminescence was measured using a plate-reading luminometer.
# Single dose or dose response inhibitor treatments were performed prior to activation of the pathways as follows. For IκBα, the cells were treated in 30 µl medium with IKK16 or MG132 for 60 min before the addition of 10 µl of DMEM containing appropriate concentration of TNFα. To measure phosphorylation of AKT or STAT3, the corresponding NanoBiT immunoassays were developed with MCF-7 or A431 cells, respectively, according the same scheme used to develop the IκBα assay using the primary antibodies for AKT and STAT3 described in the reagents section. […] Treatment with LY294002 was performed in 30 µl medium and cells were incubated for 60 min before the addition of 1 µM Insulin. […]
# All 96-well assay plates were read using a GloMax® 96 Microplate Luminometer from Promega. […] IC50 values were determined by using a nonlinear regression fit to a sigmoidal dose response (variable slope).
# STAT3 Phospho-Tyr705 = test: NanoBiT pSTAT3 cell-based immunoassay in A431 cells; conditions: substance alone
# How it was run: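 Cells were lysed in 0.1% digitonin buffer, then target protein was detected with two primary antibodies plus NanoBiT detection antibodies (90 min, 23 °C), read as luminescence minus reagent background. For pSTAT3, A431 cells were serum-starved overnight before inhibitor and stimulator. For IκBα, MCF-7 cells got inhibitor for 60 min before TNFα. IC50 came from variable-slope sigmoidal fits.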
# AKT Phospho-Ser473 = test: NanoBiT p-AKT cell-based immunoassay in MCF-7 cells
# Procedure: (§1) Prior to NanoBiT Cell-Based Immunoassay, 50,000 cells were seeded in 160 µl of complete growth media per well of a 96-well plate and incubated overnight. The cells were checked under microscope and it was determined that 50,000 cells per well in 96-well plate is under 90% confluency for all cells tested. If necessary, the cell culture media were replaced with serum-free media after the cells were stably adherent on the plate and incubated overnight. To treat cells with activators or inhibitors, medium was changed to 30 µl of medium containing inhibitors. If activation of a specific pathway is needed, the cells were stimulated with 10 µl of medium containing activators. To lyse the cells, 10 µl of lysis buffer containing 0.1% digitonin diluted in 1X immunoassay buffer with protease and phosphatase inhibitors was added and the plates were mixed vigorously for 20 min. Then, 50 µl of an antibody mix containing two primary antibodies against the target protein and NanoBiT detecting antibodies (0.3 µl each per well), diluted in 1X immunoassay buffer was added to the lysates. The plates were incubated at 23 °C for 90 min, followed by the addition of 25 µl of Nano-Glo® reagent consisting of Nano-Glo® Luciferase Assay Substrate mixed with 1X immunoassay buffer. Luminescence was measured using a plate-reading luminometer.
# (§2) Single dose or dose response inhibitor treatments were performed prior to activation of the pathways as follows. For IκBα, the cells were treated in 30 µl medium with IKK16 or MG132 for 60 min before the addition of 10 µl of DMEM containing appropriate concentration of TNFα. To measure phosphorylation of AKT or STAT3, the corresponding NanoBiT immunoassays were developed with MCF-7 or A431 cells, respectively, according the same scheme used to develop the IκBα assay using the primary antibodies for AKT and STAT3 described in the reagents section. For the AKT assay, MCF-7 cells were incubated overnight in phenol-red free DMEM medium (Gibco #21063-029) without serum. Treatment with LY294002 was performed in 30 µl medium and cells were incubated for 60 min before the addition of 1 µM Insulin. To measure STAT3 phosphorylation, A431 cells were incubated overnight in DMEM medium without serum. […] After addition of the stimulators, the cells were incubated for additional times as follows. IκBα phosphorylation and degradation analyses required both time courses and single time points as described in figures. […] The NanoBiT immunoassay protocol was followed as described above.
# (§3) All 96-well assay plates were read using a GloMax® 96 Microplate Luminometer from Promega. The instrument was set to 0.5 s integration time. In order to obtain net change of signal, the reagent background values (signal from the well containing all reagent except primary antibodies) were subtracted from the sample values. To plot and analyze the data, Microsoft Excel and GraphPad Prism® Software were used. IC50 values were determined by using a nonlinear regression fit to a sigmoidal dose response (variable slope).
# total AKT = test: NanoBiT cell-based immunoassay, total AKT in MCF-7 cells
# Procedure: as §1, §2, §3
# [1] = background subtracted, average of replicates
# [2] = substance alone, background subtracted, average of replicates
# [3] = substance alone, single replicates
Substance,"Total STAT3, Average (total STAT3; [1])","Total Stat3, Raw data (total STAT3; single replicates)","Total Stat3, Subtract reagent background (total STAT3; single replicates)","P-STAT3, Average (STAT3 Phospho-Tyr705; [1])",P-STAT3 Raw data (STAT3 Phospho-Tyr705; single replicates),P-STAT3 Subtract reagent background (STAT3 Phospho-Tyr705; single replicates),"AKT phosphorylation over the level in non-treated cells (AKT Phospho-Ser473; MCF-7 cells, insulin 1 µM 10 min)","P-AKT, Average (AKT Phospho-Ser473; [2])","P-AKT, Raw data (AKT Phospho-Ser473; [3])","P-AKT, Subtract reagent background (AKT Phospho-Ser473; [3])","total level of AKT protein (total AKT; MCF-7 cells, insulin 1 µM 10 min, LY294002 20 µM 1 h)","Total AKT, Average (total AKT; [2])","Total AKT, Raw data (total AKT; [3])","Total AKT, Subtract reagent background (total AKT; [3])"
IL-6,1196983,1090000 and 1448000,1345317 and 987317,418850,458600 and 528900 and 577100,355917 and 426217 and 474417,–,–,–,–,–,–,–,–
"insulin: Insulin (#I-0516) from Sigma-Aldrich, AKT pathway stimulator",–,–,–,–,–,–,more than 20 fold,2201625,2263000 and 2421000 and 2357000 and 2406000,2102700 and 2260800 and 2195400 and 2247600,stayed constant,108225,265700 and 270200 and 257000 and 278000,121700 and 104800 and 109800 and 96600
